Measurements taken from patent publication US20040115150A1, “Cosmetics and treatment method for promoting maturation of cornified envelopes” (priority 2001, published 2004).

Legend:
[1] = test system: immature CE (cornified envelope) in stratum corneum; test: CE Maturation Promoting Test, incubation varied to 37° C. and 100% relative humidity for a day; set-up: species or system human
Protocol: (§1) Stratum corneum containing many immature CE's were taken from the subjects suffering from skin troubles such as chapping, by means of tape stripping. To the stratum corneum still adhering to the tapes, a test solution was applied, followed by 4 days' incubation under the conditions of 30° C. in temperature and 70% in humidity. After end of the incubation, a tris-hydrochloric acid buffer solution containing dithiothreitol and sodium dodecylsulfate was added, followed by 10 minutes' heating at 100° C. The insoluble matter was collected by centrifuge at 4000 g for 10 minutes. Addition of the eluate and heating cycle was further repeated to thoroughly remove the soluble component. Thus obtained insoluble matter was used as CE.
Properties of each CE thus isolated were evaluated by the following method: CE was spotted on a piece of slide glass, air-dried and fixed in cold acetone. Hydrating the same with Dulbecco's phosphate buffered saline, it was reacted with mouse anti-human involucrin antibody (NOVOCASTRA Co.) as the primary antibody. Excessive antibody was removed by washing and the residue was reacted with FITC-labeled rabbit anti-mouse immunoglobulin antibody as the secondary antibody. Excessive antibody was removed by washing, and the residue was reacted with Nile Red dye solution, sealed and observed with a fluorescence microscope. The observed images were taken into computer via CCD camera, and the ratio of involucrin positive immature CE and that of Nile Red-positive mature CE were evaluated using an image analysis software (Win Roof) or the like.
Procedures similar to Example 1 were repeated, except that the incubation conditions were varied to 37° C. and 100% (relative humidity) for a day.

[2] = test system: immature CE (cornified envelope) in stratum corneum; test: CE Maturation Promoting Test (tape-stripped stratum corneum, 4 days' incubation at 30° C., 70% humidity); set-up: species or system human; settings: test solution applied to tape-stripped stratum corneum, involucrin/Nile Red staining, mean of N = 3, water control 11.7
Protocol: as §1
Properties of each CE thus isolated were evaluated by the following method: CE was spotted on a piece of slide glass, air-dried and fixed in cold acetone. […] Excessive antibody was removed by washing, and the residue was reacted with Nile Red dye solution, sealed and observed with a fluorescence microscope. The observed images were taken into computer via CCD camera, and the ratio of involucrin positive immature CE and that of Nile Red-positive mature CE were evaluated using an image analysis software (Win Roof) or the like.

[3] = Table 3, one day, mean of N = 3, before treatment 28.3, 0.1 M MES buffer pH5.5 control 3.0
[4] = Table 2, one day, mean of N = 3, water control 36.9

Row | Structure (SMILES) | Ratio of Immature CE (%) [1, 3] [%] | Ratio of Immature CE (%) [1, 4] [%] | Ratio of Immature CE (%) [2] [%]
1 | [Ca+2].[Cl-].[Cl-] [1 mM calcium chloride, calcium chloride] | 1.83 | – | –
2 | C[N+](C)(C)CC(=O)O [10% trimethyl glycine, trimethyl glycine] | – | 9.3 | –
3 | O[C@H](CS)[C@H](O)CS (racemic) [10 mM dithiothreitol, dithiothreitol] | 0.33 | – | –
4 | OCC(O)CO [10% glycerin, glycerin] | – | 14.6 | 6.3
